# From patent publication US20250234861A1, “LACTONES FOR ENHANCING THE ACTIVITY OF ANTIMICROBIAL AGENTS” (BASF SE, priority 2021, published 2025)
# Assays:
# Type in all cases: cell-based
# [1] = test system: Pseudomonas aeruginosa ATCC 15442; test: Example 2.4: preservative activity of a basic composition (pH 5, 10% PG) using sodium benzoate, bacterial challenge; conditions: day 7
# Protocol: An aqueous composition of pH 5 comprising 10% by weight of propyleneglycol (PG) as organic solvent, sodium benzoate as antimicrobial and 0.18% by weight of γ-valerolactone was tested for its preserving activity against bacterial contamination (the weight percentages relate to the total weight of the composition). For this purpose, the samples were contaminated with a bacterial suspension of Pseudomonas aeruginosa ATCC 15442.
# The samples were inoculated with the bacterial suspension at day 0 to obtain 6.1×10E+07 CFU/ml inoculation in the test sample and stored at 25° C. for 7 days.
# (§1) CFU was determined at day 7.
# Any CFU value at day 7 (d7) obtained with a sample according to the invention containing sodium benzoate and lactone (10% PG+x % sodium benzoate+0.18% of Lactone) lower than the respective value of the “comparative 2” example (10% PG+0.5% sodium benzoate) or “comparative 3” example (10% PG+0.85% sodium benzoate) indicates a better performance.
# [2] = test system: bacterial mix consisting of Escherichia coli DSM 1576, Alcaligenes faecalis DSM 13644, Pseudomonas aeruginosa ATCC 15442, Staphylococcus aureus ATCC 6538 …; test: Example 2.3: preservative activity of a basic composition (pH 7, 10% PG) using 1,2-benzisothiazol-3(2H)-one (BIT), bacterial challenge; conditions: day 7
# Protocol: An aqueous composition of pH 7 comprising 10% by weight of propyleneglycol (PG) as organic solvent, 0.004% by weight of 1,2-benzisothiazol-3(2H)-one (BIT) as antimicrobial and the lactone listed in the below table was tested for its preserving activity against bacterial contamination (the weight percentages relate to the total weight of the composition). For this purpose, the samples were contaminated with a bacterial mix consisting of: • Escherichia coli DSM 1576 • Alcaligenes faecalis DSM 13644 • Pseudomonas aeruginosa ATCC 15442 • Staphylococcus aureus ATCC 6538 • Burkholderia cepacia DSM 7288 • Pseudomonas putida DSM 12735
# The samples were inoculated with the bacterial mix at day 0 to obtain 10E+06 to 10E+07 CFU/ml inoculation in the test sample and stored at 25° C. for 7 days.
# as §1
# Any CFU value at day 7 (d7) obtained with a sample according to the invention containing BIT and lactone (10% PG+0.004% BIT+x % of Lactone) that is lower than the respective value of the “comparative 2” example (10% PG+0.004% BIT) indicates a better performance.
# [3] = test system: fungal mix consisting of Aspergillus brasiliensis DSM 1988, Rhodotorula mucilaginosa DSM 13621, Yarrowialipolytica DSM 8218; test: Example 1.2: preservative activity in a manual dishwashing composition (MDW, pH 7.1) using 2-phenoxyethanol (PE), fungal challenge; conditions: for d7 CFU: day 7; for d14 CFU: day 14; for d21 CFU: day 21
# Protocol: (§2) A manual dish wash detergent (MWD) of pH 7.1 containing the following components was used:
# (§3) The samples were contaminated with a fungal mix consisting of: • Aspergillus brasiliensis DSM 1988 • Rhodotorula mucilaginosa DSM 13621 • Yarrowialipolytica DSM 8218
# (§4) The samples were inoculated with the fungal mix at day 0 and 7 to obtain 1-3×10E+05 CFU/ml inoculation in the test sample consisting of the above-defined dish wash detergent MDW and stored at 25° C. for 21 days. CFU was determined before re-inoculation at day 7, and on days 14 and 21.
# (§5) Any CFU value at d7, d14 or d21 obtained with a MDW sample of the invention containing 2-phenoxyethanol and lactone (MDW+1.0% PE+x % of Lactone) lower than the respective value of the “comparative 2” example (MDW+1.0% by weight of 2-Phenoxyethanol) indicates a better performance of the inventive combination of 2-phenoxyethanol with the lactone.
# [4] = test system: fungal mix consisting of Aspergillus brasiliensis DSM 1988, Rhodotorula mucilaginosa DSM 13621, Yarrowialipolytica DSM 8218; test: Example 1.3: preservative activity in a manual dishwashing composition (MDW, pH 7.1) using 2-phenoxyethanol (PE), fungal challenge; conditions: for d7 CFU: day 7; for d14 CFU: day 14; for d21 CFU: day 21
# Protocol: as §2, §3, §4, §5
# [5] = test system: bacterial mix consisting of Escherichia coli DSM 1576, Alcaligenes faecalis DSM 13644, Pseudomonas aeruginosa ATCC 15442, Staphylococcus aureus ATCC 6538 …; test: Example 2.1: preservative activity in a manual dishwashing composition (MDW, pH 7.1) using 2-phenoxyethanol (PE), bacterial challenge; conditions: for d7 CFU: day 7; for d14 CFU: day 14; for d21 CFU: day 21
# Protocol: as §2
# The samples were contaminated with a bacterial mix consisting of: • Escherichia coli DSM 1576 • Alcaligenes faecalis DSM 13644 • Pseudomonas aeruginosa ATCC 15442 • Staphylococcus aureus ATCC 6538 • Burkholderia cepacia DSM 7288 • Pseudomonas putida DSM 12735
# The samples were inoculated with the bacterial mix at day 0 and 7 to obtain 10E+06 to 10E+07 CFU/ml inoculation in the test sample and stored at 25° C. for 21 days. CFU was determined before re-inoculation at day 7 and on days 14 and 21.
# Any CFU value at day 7 (d7), day 14 (d14) or day 21 (d21) obtained with a sample according to the invention containing 2-phenoxyethanol and lactone (MDW+1.0% PE+x % Lactone) lower than the respective value of the “comparative 2” example (MDW+1.0% by weight of 2-Phenoxyethanol) indicates a better performance.
# [6] = MDW + 1.0% PE + 1% of lactone, fungal mix
# [7] = MDW + 1.0% PE + 2% of lactone, fungal mix
# [8] = MDW pH 7.1 + 1.0% of the substance alone (comparative), fungal mix inoculated day 0 and 7, 25° C.
# [9] = MDW pH 7.1 + 1.0% of the substance alone (comparative), fungal mix
# [10] = MDW + 1.0% PE + 1% of lactone, bacterial mix
# [11] = MDW pH 7.1 + 1.0% of the substance alone (comparative), bacterial mix inoculated day 0 and 7, 25° C.
# [12] = MDW pH 7.1 + 1.0% of the substance alone (comparative), bacterial mix
compound,measurement,setting,value
CC1CCC(=O)O1 (centres unmarked) [γ-valerolactone],d7 [CFU/ml],[1]; 10% PG + 0.5% sodium benzoate + 0.18% of lactone,990 CFU/ml
same,d7 [CFU/ml],[1]; 10% PG + 0.85% sodium benzoate + 0.18% of lactone,890 CFU/ml
same,d7 [CFU/ml],"[1]; 10% PG, pH 5 + 0.18% lactone alone (Comparative 1), P. aeruginosa, 25° C.",">100,000 CFU/ml"
same,d7 [CFU/ml],[2]; 10% PG + 0.004% BIT + 0.04% of lactone,145 CFU/ml
same,d7 [CFU/ml],"[2]; 10% PG, pH 7 + 0.04% lactone alone (Comparative 1), 25° C.",">100,000 CFU/ml"
same,d7 CFU,[3]; [6],"3,500 CFU"
same,d14 CFU,[3]; [6],"3,600 CFU"
same,d21 CFU,[3]; [6],385 CFU
same,d7 CFU,[3]; [7],85 CFU
same,d14 CFU,[3]; [7],95 CFU
same,d21 CFU,[3]; [7],<10 CFU
same,d7 CFU,[3]; [8],"12,000 CFU"
same,d14 CFU,[3]; [8],"24,500 CFU"
same,d21 CFU,[3]; [8],"2,500 CFU"
CCCCCCC1CCC(=O)O1 (centres unmarked) [γ-Decalactone],d7 CFU,[4]; [6],"24,500 CFU"
same,d14 CFU,[4]; [6],"13,000 CFU"
same,d21 CFU,[4]; [6],1200 CFU
same,d7 CFU,[4]; [8],">100,000 CFU"
same,d14 CFU,[4]; [9],">100,000 CFU"
same,d21 CFU,[4]; [9],">100,000 CFU"
CCCCCC1CCC(=O)O1 (centres unmarked) [y-Nonalactone],d7 CFU,[5]; [10],<10 CFU
same,d14 CFU,[5]; [10],<10 CFU
same,d21 CFU,[5]; [10],<10 CFU
"O=c1[nH]sc2ccccc12 [BIT, 1,2-benzisothiazol-3(2H)-one, reference compound]",d7 [CFU/ml],"[2]; 10% PG, pH 7 + 0.004% BIT alone (Comparative 2)",">100,000 CFU/ml"
CCCCCCC1CCC(=O)O1 (centres unmarked) [y-Decalactone],d7 CFU,[5]; [10],<10 CFU
same,d14 CFU,[5]; [10],<10 CFU
same,d21 CFU,[5]; [10],<10 CFU
same,d7 CFU,[5]; [11],">100,000 CFU"
same,d14 CFU,[5]; [12],">100,000 CFU"
same,d21 CFU,[5]; [12],">100,000 CFU"
OCCOc1ccccc1 [Phenoxyethanol (PE)],d7 CFU,[3]; [8],"34,500 CFU"
same,d14 CFU,[3]; [8],"16,500 CFU"
same,d21 CFU,[3]; [8],"3,800 CFU"
same,d7 CFU,[5]; [11],625 CFU
same,d14 CFU,[5]; [12],">100,000 CFU"
same,d21 CFU,[5]; [12],">100,000 CFU"
same,d7 CFU,[4]; [8],">100,000 CFU"
same,d14 CFU,[4]; [9],">100,000 CFU"
same,d21 CFU,[4]; [9],">100,000 CFU"
CCCCCC1CCC(=O)O1 (centres unmarked) [γ-nonalactone],d7 CFU,[4]; [6],"4,100 CFU"
same,d14 CFU,[4]; [6],"5,000 CFU"
same,d21 CFU,[4]; [6],150 CFU
same,d7 CFU,[4]; [8],">100,000 CFU"
same,d14 CFU,[4]; [9],">100,000 CFU"
same,d21 CFU,[4]; [9],">100,000 CFU"
"O=C([O-])c1ccccc1.[Na+] [sodium benzoate, reference compound]",d7 [CFU/ml],"[1]; 10% PG, pH 5 + 0.5% sodium benzoate alone (Comparative 2)",">100,000 CFU/ml"
same,d7 [CFU/ml],"[1]; 10% PG, pH 5 + 0.85% sodium benzoate alone (Comparative 3)",">100,000 CFU/ml"
CCCCCC1CCC(=O)O1 (centres unmarked) [Y-Nonalactone],d7 CFU,[5]; [11],"8,400 CFU"
same,d14 CFU,[5]; [12],">100,000 CFU"
same,d21 CFU,[5]; [12],">100,000 CFU"
